Measurements taken from patent US8404747B2, “Compositions and methods for modulating interaction between polypeptides” (The General Hospital Corporation, priority 2004, dated 2013).
pIC50: −log10 of the molar value. Like-named read-outs stand apart in the source and are kept apart here.

Tests used:
[1] = tested on: SP1 trancription factor binding motif (6XSP1) promoter; assay: 6XSP1 luciferase transcription-based assay in 111Q/111Q striatum double knock-in cells; format: cell-based, mouse; conditions: 6XSP1 luciferase reporter; for transcription activation: CG4 among CG series, less potent than C9-4
Experimental: FIGS. 1A-1C. FIG. 1A is a bar graph showing luciferase expression in Sp1-luc/111Q striatum double knock-in cells following treatment with different compounds, as indicated. Fluorescence was measured 24 hours after addition of compound. FIG. 1B is a bar graph as described in FIG. 1A. Fluorescence was measured 48 hours after addition of compound. FIG. 1C is a bar graph as described in FIG. 1A. Fluorescence was measured 72 hours after addition of compound.
We conducted structure activity relationship (SAR) studies to optimize transcription activation. We developed a novel transcription-based assay for this purpose. A luciferase reporter gene was stably integrated into 111Q/111Q striatum double knock-in cells and constitutively expressed under control of a promoter containing six copies of the SP1 trancription factor binding motif (6XSP1). In this system, C9 was determined to have an EC200 of 7.5 μM.

[2] = tested on: aggregation of 103Q in PC12 cells; assay: polyQ (103Q) aggregation in ecdyson-inducible PC12 cells; format: cell-based, rat; conditions: Rattus norvegicus, PC-12
Experimental: To study the inhibitors we identified using the yeast screen in mammalian cells, we employed ecdyson-inducible rat phaeochromocytoma (PC12) cells. Compounds were tested in two clones, 14A2/5 and 14A2/6, with highest aggregation rate. We incubated undifferentiated PC12 cells with muristerone A to induce 103Q expression, and we exposed the cells to compounds at concentrations ranging from 1 to 10 μM. […] All compounds were non-toxic except C2, which was toxic at concentrations higher than 5 μM.
We tested these analogs at concentrations ranging from 0.025 μM to 5.0 μM for their effects on polyQ aggregation in PC12 cells. Among 24 analogs of C1; 28 analogs of C2; 24 analogs of C3, and 53 analogs of C4, we identified several potent inhibitors of polyQ aggregation. From our C2 focus library, we isolated compound C2-8 (B2 in Table 2), which inhibits polyQ aggregation with an IC50 value 50 nM. We also identified C2-10 (B6 in Table 2) and C2-11 (M16 (formula V(n)) in Table 5), and B7, B8 and B9 in Table 2. From our C3 focus library, we isolated compound C3-5 (M22 (formula V(t)) in Table 5) (having an IC50 value of 100 nM) and compound C3-6 (M17 (formula V(o)) in Table 5) (having an IC50 value of 5 μM). From our C4 library, we isolated compound C4-7 (A31 in Table 1), which has an IC50 value 100 nM. We also identified C4-34 (A3 in Table 1).

[3] = tested on: HD Q51 aggregates in Cos1 cells; assay: HD Q51 aggregation in transfected Cos1 cells, cellulose acetate membrane trap; format: cell-based; conditions: Chlorocebus aethiops, COS-1; Cos1 cells transfected with HD Q51; read-out: IC50, polyQ aggregation (retained polyQ on membrane)
Experimental: The inhibitory activity we observed with C1-C4 in the PC12 cell model described above was confirmed in Cos1 cells transiently transfected with a CMV promoter-based DNA construct that encodes an Htt exon I fragment of Huntington's disease protein (Htt)) having 51 consecutive glutamine residues (HD Q51). When expressed in Cos1 cells, HD 51Q polypeptides readily form aggregates. Transfected Cos1 cells were incubated with C1-C4 compounds in culture medium and lysed. The lysates were then heat-denatured in SDS and passed through a cellulose acetate membrane, which captures aggregated, but not soluble polypeptides. Polyglutamine aggregates trapped on membranes were detected by immunostaining with antibody specific to extended polyQ. Pre-incubation of cells with compounds C1, C3, and C4 decreased the amount of retained polyQ, indicating inhibitory effects on polyQ aggregation. The IC50 for compound C1 was 10 μM and the IC50 for compounds C3 and C4 was 5 μM. As C2 was toxic for Cos1 cells, its effect on aggregation was not determined.

[4] = tested on: polyQ aggregates (HD Q150) in neurons of R6/2 mouse brain slices; assay: polyQ aggregation in R6/2 brain slice cultures; format: cell-based; conditions: 3-week time point
Experimental: The effects of the selected compounds on polyQ aggregation in neuronal tissues were assessed in brain slice cultures from the transgenic mouse R6/2 model of HD. R6/2 mice ubiquitously express human Huntingtin exon I containing 150Q (HD Q150), which causes neuropathology resembling key neurological changes in HD patients. Formation of neuronal polyQ aggregates precedes pathological behavioural changes in R6/2 mice. An organotypic slice culture assay has been developed in order to establish an ex vivo system that closely models the process of aggregation occurring in R6/2 mouse brains. […] The potency of any aggregate inhibitor can be assessed directly in neurons in brain slices (thus bypassing the blood brain barrier, the major obstacle to test compounds in neuronal tissues).
Aggregation in brain slice cultures was assessed during four weeks using three parameters: (1) the number of aggregates per square millimeter, (2) the density of individual aggregates, and (3) the size of the aggregates. These parameters can be assessed in any of the assays described herein. […] To obtain statistically significant data, 20 sections for each sample were quantified with a macro computer program (Paul Wetton at Image Associates, UK), which measured aggregate count, aggregate density and aggregate size. […]

[5] = biological target: T1, Recombinant HD Q51 polypeptide (Homo sapiens, UniProt P42858, INS38QQQQQQQQQQQQQQQQQQQQQQQQQQQQQQ); assay: cell-free trap assay of purified polyQ; format: biochemical; conditions: cell-free trap assay; read-out: IC50, aggregation of purified polyQ
T1 construct: made in house
Experimental: To determine whether C2 could directly interfere with polyQ aggregation, we reproduced this process in vitro and assayed the inhibitory effects of the compounds in a cell-free trap assay. Recombinant HD Q51 polypeptide, purified from bacteria, was incubated in the presence or in the absence of C2 for a time sufficient to allow aggregation. Then, upon heat-denaturation in SDS buffer, samples were filtered through a cellulose acetate membrane. Harsh denaturation conditions separated unaggregated soluble peptides, which passed through the membrane, and insoluble aggregates, which were retained on the membrane. The polyQ aggregates trapped on the membrane were subsequently immunostained and quantified.
Congo Red, which is structurally unrelated to C2-8, was used as a control.

cells = assay: nonspecific toxicity to cells; format: cell-based
HDAc = HDAc activity; format: biochemical; conditions: at high concentrations; down-regulation of HDAc 5
[6] = tested on: polyQ-containing polypeptides; assay: aggregation of polyQ-containing polypeptides, assay not specified
htt103Q-EGFP = assay: PC12 htt103Q-EGFP fluorescence assay; format: cell-based; conditions: PC12 cells
Source text: A PC12 cell line was engineered to express extended polyQ under the control of an ecdysone-inducible promoter. In the assay cell line, an N-terminal fragment of htt containing an extended polyQ tract was stably expressed as a fusion with EGFP (htt103Q-EGFP), from the pIND vector. Expression of extended polyQ in these cells was controlled by addition of an ecdysone analog, in this case muristerone A. In this assay, EGFP fluorescence directly correlated with htt103Q-EGFP expression levels. This system was designed to assess the effects of specific compounds on overall levels of extended polyglutamines in cells, using a simple fluorescent-based read-out.

R2/6 HD mice = conditions: cited from earlier work
[7] = tested on: mutant Huntingtin transgene (htt); assay: transgene (mutant htt, extended polyQ) expression in inducible PC12 cells; format: cell-based, rat; conditions: PC12 cells, with scriptaid
Source text: (§1) The compound C9 (A33 in Table 1) has structural similarity to the histone deacetylase (HDAc) inhibitor, scriptaid (6-(1,3-Dioxo-1H,3H-benzo[de]isoquinolin-2-yl)-N-hydroxyhexanamide) (Su et al., Cancer Res. 60:3137, 2000; A5 in Table 1). We observed the most dramatic effect on expression level by C9 and scriptaid in the PC12 cell line 14A2/6 expressing the extended polyQ mutant htt(104Q). The effect of C9 on the down-regulation of polyQ expression, was similar to cystamine, a drug that has shown efficacy in a mouse model for Huntington's Disease (HD). […] 14A2/6 cells were at least 5-fold more responsive to chemical treatment than other cell lines tested.
Transcriptional dysregulation is a hallmark of HD. […] Expression of the polypeptide was under control of an inducible ecdysone receptor (EcR)-based promoter.

PC12 cells = assay: rescue from scriptaid-dependent synthetic lethality in PC12 cells; format: cell-based, rat
Source text: as §1

[8] = PC12 clones 14A2/5 and 14A2/6, muristerone A induced, 1 to 10 μM, read-out: IC50, aggregation of 103Q
[9] = PC12 cells, focus library analogs, 0.025 μM to 5.0 μM, read-out: IC50, polyQ aggregation

T1 sequence (P42858 with tags, fused parts or gaps with the stated changes): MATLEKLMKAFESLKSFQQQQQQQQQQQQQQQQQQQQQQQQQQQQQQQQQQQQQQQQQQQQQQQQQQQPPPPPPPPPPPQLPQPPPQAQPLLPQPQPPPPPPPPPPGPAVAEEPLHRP

CCN1C(=O)c2cccc3c(NC(C)=O)ccc1c23 [CG4, N-(1-Ethyl-2-oxo-1,2-dihydro-benzo[cd]indol-6-yl)-acetamide]
transcription activation [1]: most potent transcriptional activator

CN(C)CCN1C(=O)c2ccc(Cl)c3c(Cl)ccc(c23)C1=O [Compound C1, 6,7-Dichloro-2-(2-dimethylamino-ethyl)-benzo[de]isoquinoline-1,3-dione]
pIC50 [2, 8]: 5.00 | pIC50 [3]: 5.00

O=C(Nc1ccc(Br)cc1)c1cccc(S(=O)(=O)Nc2ccc(Br)cc2)c1 [Compound C2-8, N-(4-Bromo-phenyl)-3-(4-bromo-phenylsulfamoyl)-benzamide]
concentration inhibiting aggregates intensity and area [4]: 10 µM | pIC50 [2, 9]: 7.30 | pIC50 [5]: 4.60

CC/C(=C/c1sc2ccc3ccccc3c2[n+]1CCCS(=O)(=O)[O-])SC [Compound C3, 3-[2-(2-Methylsulfanyl-but-1-enyl)-naphtho[1,2-d]thiazol-1-yl]-propane-1-sulfonic acid anion]
pIC50 [2, 8]: 5.30 | pIC50 [3]: 5.30

c1ccc(-c2nc3cnc4ccccc4c3s2)cc1 [Compound C3-6, 2-Phenyl-thiazolo[4,5-c]quinoline]
pIC50 [2, 9]: 5.30

O=C1c2cccc3c(N4CCOCC4)ccc(c23)C(=O)N1Cc1ccccc1 [Compound C4, 2-Benzyl-6-morpholin-4-yl-benzo[de]isoquinoline-1,3-dione]
pIC50 [2, 8]: 5.60 | pIC50 [3]: 5.30

O=C1c2cccc3c(N4CCCCC4)ccc(c23)C(=O)N1CO [Compound C4-7, 2-Hydroxymethyl-6-piperidin-1-yl-benzo[de]isoquinoline-1,3-dione]
pIC50 [2, 9]: 7.00

CN(C)CCN1C(=O)c2cccc3cccc(c23)C1=O [Compound C9-1B, 2-(2-Dimethylamino-ethyl)-benzo[de]isoquinoline-1,3-dione]
range of weak nonspecific toxicity (cells): 1.25 to 5.0 µM | EC200, transcription activation [1]: 50 nM

O=C1c2cccc3cccc(c23)C(=O)N1CCNCO [Compound C9-3, 2-[2-(Hydroxymethyl-amino)-ethyl]-benzo[de]isoquinoline-1,3-dione]
transcription activation [1]: did not effectively activate transcription

O=C1c2cccc3cccc(c23)C(=O)N1CCN1CCCCC1 [Compound C9-4, 2-(2-Piperidin-1-yl-ethyl)-benzo[de]isoquinoline-1,3-dione]
HDAc inhibitory activity (HDAc): indirect HDAc inhibitory activity

CN(C)CCCN1C(=O)c2cccc3cccc(c23)C1=O [Compound C91, 2-(3-Dimethylamino-propyl)-benzo[de]isoquinoline-1,3-dione]
effect on aggregation [6]: facilitate protein-protein aggregation | EC200, transcription activation [1]: 4000 nM

CCN(CC)C(=O)c1sc(NC(=O)c2ccc(F)cc2)c(C(=O)OC(C)C)c1C [Compound D3, 5-Diethylcarbamoyl-2-(4-fluoro-benzoylamino)-4-methyl-thiophene-3-carboxylic acid isopropyl ester]
effect on protein aggregation (htt103Q-EGFP): facilitators of protein aggregation

CCOC(=O)c1sc(NC(=O)c2cc(S(N)(=O)=O)c(Cl)cc2Cl)c(C(=O)OCC)c1C [Compound D4, 5-(2,4-Dichloro-5-sulfamoyl-benzoylamino)-3-methyl-thiophene-2,4-dicarboxylic acid diethyl ester]
effect on protein aggregation (htt103Q-EGFP): inhibit protein aggregation

NCCSSCCN [cystamine, reference compound]
protein aggregation (R2/6 HD mice): blocked protein aggregation | survival (R2/6 HD mice): prolonged the survival | effect on scriptaid-stimulated expression and aggregation [7]: reversed the stimulatory effect | rescue from scriptaid-dependent synthetic lethality (PC12 cells): rescued
